Like-named read-outs stand apart in the source and are kept apart here.
Columns and labels:
NCI-H460 NSCLC xenograft = details: cited from earlier work
[1] = tested on: human non-small cell lung cancer (NSCLC) xenograft; details: 2 mg/kg pralatrexate-treated group; cited from earlier work
[2] = tested on: human T cell lymphoma cell line HH; test: macrophage phagocytosis assay on human lymphoma cell line HH; assay type: cell-based; details: HH cells (CD47-sensitive), 2 h co-culture with macrophages; FIG. 1; vs single agents or no-treatment control
Protocol: (§1) A macrophage phagocytosis assay was conducted in order to assess the effects of the combination of a DHFRi and CD47 blocking agent as compared to the agents individually on macrophage phagocytosis of human lymphoma cells.
(§2) For the assay, the DHFRi was pralatrexate, and the CD47 blocking agent was an Fc fusion protein comprising soluble SIRPα (TTI-621). The lymphoma cells were human T cell lymphoma cell lines HH (ATCC Ref. CRL-2105) (a mature T cell line from peripheral blood of a patient with aggressive cutaneous T cell leukemia/lymphoma) or H9 (ATCC Ref. HTB-176) (a cutaneous T cell lymphoma). Thus, there were 4 experimental conditions for each lymphoma cell type: A) no treatment; B) pralatrexate only; C) TTI-621 (SIRPα-IgG1 Fc) only; and D) combination of pralatrexate and TTI-621.
(§3) PBMC from normal donors were purchased from BioIVT and informed consent was obtained from all donors. CD14+ monocytes were isolated from PBMCs by positive selection using human monocyte isolation kit. […] Phagocytosis was assessed as % VPD450+ cells of live, single CD14+CD11b+ macrophages by flow cytometry.

[3] = tested on: human T cell lymphoma cell line H9; test: macrophage phagocytosis assay on human lymphoma cell line H9; assay type: cell-based; details: H9 cells (CD47-insensitive), 2 h co-culture with macrophages; FIG. 2; vs single agents or no-treatment control
Protocol: as §1, §2, §3

| Compound | tumor growth inhibition (TGI) (NCI-H460 NSCLC xenograft; 1 mg/kg) [%] | tumor growth inhibition (TGI) (NCI-H460 NSCLC xenograft; 2 mg/kg) [%] | tumor growth inhibition (TGI) [1] [%] | percentage phagocytosis (% VPD450+ cells of live, single CD14+CD11b+ macrophages) [2] | percentage phagocytosis (% VPD450+ cells of live, single CD14+CD11b+ macrophages) [3] |
| --- | --- | --- | --- | --- | --- |
| C#CCC(Cc1cnc2nc(N)nc(N)c2n1)c1ccc(C(=O)N[C@@H](CCC(=O)O)C(=O)O)cc1 (some centres unmarked) [pralatrexate, Pralatrexate] | 34 | 52 | 38 |  |  |
| TTI-621: Fc fusion protein comprising soluble SIRPα (SIRPα-IgG1 Fc), SEQ ID NO: 9; CD47 blocking agent |  |  |  | increased phagocytosis | not present |
